Entries after “also recorded” stand apart in the source; their conditions may differ.
What was measured:
human hepatocytes [1] = assay: Metabolism of 5-MeO-DMT in human hepatocytes in suspension; format: in vitro ADME; settings: 5-MeO-DMT free base 10 μM incubated up to 120 minutes
Procedure: All samples were stored at −80° C. (nominal) prior to analysis.
Appropriate blank and control samples were also analysed. […] (nominal).

human hepatocytes [2] = assay: Metabolic stability in Hprel human hepatocyte co-culture; format: in vitro ADME; settings: for Half-life / In vitro intrinsic clearance: human hepatocytes, 1 μM; for Predicted hepatic extraction ratio: human, Hprel HumanPool human hepatocyte co-culture; for Disappearance with stromal cell controls: stromal cells
Procedure: The incubations were performed using 1 and 10 μM initial concentrations and sampling at 0, 1, 2, 4, 8, 24, 48, and 72 hours (h) time points. The samples were analysed using UPLC/QE-orbitrap-MS.
The remaining LC/MS peak areas detected for test compounds after each incubation time point with Hprel co-culture assay, relative to corresponding 0 min incubation samples, are shown in the tables below.

human plasma protein = assay: Plasma binding of 5-MIAA; format: in vitro ADME
Procedure: Binding to human plasma protein was determined. Reported are the unbound fraction (fu) for three replicates as well as the mean unbound fraction, the standard deviation and the mean % recovery (Table 8).

[3] = LC-MS/MS of 5-MeO-DMT, bufotenine and 5-MIAA in breastmilk, serum and urine of a treated PPD patient; infant dose estimates
[4] = 5 kg infant, three feeds of 250 ml
[5] = 1.0 hrs after last dose, second PPD patient, inhaled 5-MeO-DMT, LC-MS/MS
[6] = 2.5 hrs after last dose, second PPD patient, inhaled 5-MeO-DMT, LC-MS/MS
[7] = 8.5 hrs after last dose, second PPD patient, inhaled 5-MeO-DMT, LC-MS/MS
[8] = 120.0 hrs after last dose, second PPD patient, inhaled 5-MeO-DMT, LC-MS/MS
[9] = timepoint −24.0 hrs (pre-dosing), second PPD patient, inhaled 5-MeO-DMT 6 mg then 12 mg, LC-MS/MS
[10] = serum, 1.0 hrs after last dose, second PPD patient, inhaled 5-MeO-DMT, LC-MS/MS
[11] = urine, 2.5 hrs after last dose, second PPD patient, inhaled 5-MeO-DMT, LC-MS/MS

Structure (SMILES): COc1ccc2[nH]cc(CC(=O)O)c2c1 [5-MIAA, 5-methoxyindole-3-acetic acid]
- Relative Proportion of compounds identified (human hepatocytes [1]): about 60%
- Relative Proportion of compounds identified (human hepatocytes [1]; listed as 5-Methoxyindole acetic acid (5-MIAA)): 61%
- Relative LC/MS peak area (human hepatocytes [2]; 1 μM Hepatocytes, 1 h): 98%
- Relative LC/MS peak area (human hepatocytes [2]; 1 μM Hepatocytes, 2 h): 100%
- Relative LC/MS peak area (human hepatocytes [2]; 1 μM Hepatocytes, 4 h): 99%
- Relative LC/MS peak area (human hepatocytes [2]; 1 μM Hepatocytes, 8 h): 95%
- Relative LC/MS peak area (human hepatocytes [2]; 1 μM Hepatocytes, 24 h): 99%
- Relative LC/MS peak area (human hepatocytes [2]; 1 μM Hepatocytes, 48 h): 88%
- Relative LC/MS peak area (human hepatocytes [2]; 1 μM Hepatocytes, 72 h): 82%
- Relative LC/MS peak area (human hepatocytes [2]; 1 μM Stromal cells, 4 h): 103%
- Relative LC/MS peak area (human hepatocytes [2]; 1 μM Stromal cells, 8 h): 107%
- Relative LC/MS peak area (human hepatocytes [2]; 1 μM Stromal cells, 24 h): 108%
- Relative LC/MS peak area (human hepatocytes [2]; 1 μM Stromal cells, 48 h): 111%
- Relative LC/MS peak area (human hepatocytes [2]; 1 μM Stromal cells, 72 h): 135%
- Relative LC/MS peak area (human hepatocytes [2]; 10 μM Hepatocytes, 1 h): 97%
- Relative LC/MS peak area (human hepatocytes [2]; 10 μM Hepatocytes, 2 h): 100%
- Relative LC/MS peak area (human hepatocytes [2]; 10 μM Hepatocytes, 4 h): 103%
- Relative LC/MS peak area (human hepatocytes [2]; 10 μM Hepatocytes, 8 h): 96%
- Relative LC/MS peak area (human hepatocytes [2]; 10 μM Hepatocytes, 24 h): 96%
- Relative LC/MS peak area (human hepatocytes [2]; 10 μM Hepatocytes, 48 h): 86%
- Relative LC/MS peak area (human hepatocytes [2]; 10 μM Hepatocytes, 72 h): 75%
- Relative LC/MS peak area (human hepatocytes [2]; 10 μM Stromal cells, 4 h): 101%
- Relative LC/MS peak area (human hepatocytes [2]; 10 μM Stromal cells, 8 h): 106%
- Relative LC/MS peak area (human hepatocytes [2]; 10 μM Stromal cells, 24 h): 97%
- Relative LC/MS peak area (human hepatocytes [2]; 10 μM Stromal cells, 48 h): 103%
- Relative LC/MS peak area (human hepatocytes [2]; 10 μM Stromal cells, 72 h): 115%
- Remaining abundance after 72 h (human hepatocytes [2]; hepatocytes, 1 and 10 μM): 75-82%
- Half-life (human hepatocytes [2]): 15 400 min
- In vitro intrinsic clearance (human hepatocytes [2]): 0.15 μl/min/million cells
- Predicted hepatic extraction ratio (human hepatocytes [2]): 2%
- Metabolic turnover (human hepatocytes [2]; in the presence of hepatocytes): low metabolic turnover
- Disappearance with stromal cell controls (human hepatocytes [2]): no disappearance
- Mean % Recovery (human plasma protein): 81.4%
- Mean fu (human plasma protein): 0.502
- Plasma binding (mean fraction unbound) (human plasma protein): ~50%
- Unbound fraction (fu), Replicate 1 (human plasma protein): 0.499
- Unbound fraction (fu), Replicate 2 (human plasma protein): 0.462
- Unbound fraction (fu), Replicate 3 (human plasma protein): 0.544
- DID per kg infant weight [3, 4]: 0.001377 mg/kg/day
- Total exposure of the infant (DID) [3, 4]: 0.006886 mg/day
- Concentration in breast milk ([3]; 1 hour after last dose (6 mg + 12 mg 5-MeO-DMT)): 13.9452 ng/mL
- Peak urine concentration relative to serum ([3]; 2.5 hours): approx. 127 times
- Concentration in breast milk ([3]; 2.5 hours after last dose): 13.2409 ng/mL
- Urine concentration ([3]; 2.5 hours after last dose): 12 980 501 pg/ml
- Concentration in breast milk ([3]; 8.5 hours after last dose): 0.3594 ng/mL
- Breastmilk concentration [3, 5]: 13945.2 pg/mL
- Breastmilk concentration [3, 6]: 13240.9 pg/mL
- Breastmilk concentration [3, 7]: 359.4 pg/mL
- Breastmilk concentration [3, 8]: BLQ
- Breastmilk concentration [3, 9]: BLQ
- concentration at 24 h ([3]; female, human, breast milk, inhaled): 0.0355 ng/mL
- concentration at 2.5 h ([3]; female, human, serum, inhaled): 102 ng/mL
- concentration at 24 h ([3]; female, human, serum, inhaled): 0.271 ng/mL
- concentration at 120 h ([3]; female, human, serum, inhaled): 0.0671 ng/mL
- concentration at 2.5 h ([3]; female, human, urine, inhaled): ~13000 ng/mL
- concentration at 8.5 h ([3]; female, human, urine, inhaled): 292 ng/mL
- concentration at 24 h ([3]; female, human, urine, inhaled): 18.6 ng/mL
- concentration at 120 h ([3]; female, human, urine, inhaled): 9.44 ng/mL
- Serum concentration [3, 10]: 263.092 ng/mL
- Urine concentration [3, 11]: 12980501 pg/mL

Structure (SMILES): COc1ccc2[nH]cc(CC[N+](C)(C)[O-])c2c1 [5-MeO-DMT-N-oxide]
- Relative Proportion of compounds identified (human hepatocytes [1]): 1%

Structure (SMILES): COc1ccc2[nH]cc(CCO)c2c1 [5-methoxytryptophol, 5-Methoxyindole-3-ethanol]
- Relative Proportion of compounds identified (human hepatocytes [1]): 25%
- Relative LC/MS peak area (human hepatocytes [2]; 1 μM Hepatocytes, 1 h): 79%
- Relative LC/MS peak area (human hepatocytes [2]; 1 μM Hepatocytes, 2 h): 57%
- Relative LC/MS peak area (human hepatocytes [2]; 1 μM Hepatocytes, 4 h): 33%
- Relative LC/MS peak area (human hepatocytes [2]; 1 μM Hepatocytes, 8 h): 10%
- Relative LC/MS peak area (human hepatocytes [2]; 1 μM Hepatocytes, 24 h): 0%
- Relative LC/MS peak area (human hepatocytes [2]; 1 μM Hepatocytes, 48 h): 0%
- Relative LC/MS peak area (human hepatocytes [2]; 1 μM Hepatocytes, 72 h): 0%
- Relative LC/MS peak area (human hepatocytes [2]; 1 μM Stromal cells, 4 h): 97%
- Relative LC/MS peak area (human hepatocytes [2]; 1 μM Stromal cells, 8 h): 107%
- Relative LC/MS peak area (human hepatocytes [2]; 1 μM Stromal cells, 24 h): 94%
- Relative LC/MS peak area (human hepatocytes [2]; 1 μM Stromal cells, 48 h): 102%
- Relative LC/MS peak area (human hepatocytes [2]; 1 μM Stromal cells, 72 h): 104%
- Relative LC/MS peak area (human hepatocytes [2]; 10 μM Hepatocytes, 1 h): 87%
- Relative LC/MS peak area (human hepatocytes [2]; 10 μM Hepatocytes, 2 h): 81%
- Relative LC/MS peak area (human hepatocytes [2]; 10 μM Hepatocytes, 4 h): 68%
- Relative LC/MS peak area (human hepatocytes [2]; 10 μM Hepatocytes, 8 h): 42%
- Relative LC/MS peak area (human hepatocytes [2]; 10 μM Hepatocytes, 24 h): 1%
- Relative LC/MS peak area (human hepatocytes [2]; 10 μM Hepatocytes, 48 h): 0%
- Relative LC/MS peak area (human hepatocytes [2]; 10 μM Hepatocytes, 72 h): 0%
- Relative LC/MS peak area (human hepatocytes [2]; 10 μM Stromal cells, 4 h): 99%
- Relative LC/MS peak area (human hepatocytes [2]; 10 μM Stromal cells, 8 h): 105%
- Relative LC/MS peak area (human hepatocytes [2]; 10 μM Stromal cells, 24 h): 86%
- Relative LC/MS peak area (human hepatocytes [2]; 10 μM Stromal cells, 48 h): 98%
- Relative LC/MS peak area (human hepatocytes [2]; 10 μM Stromal cells, 72 h): 104%
- Half-life (human hepatocytes [2]): 142 min
- In vitro intrinsic clearance (human hepatocytes [2]): 16.2 μl/min/million cells
- Predicted hepatic extraction ratio (human hepatocytes [2]): 67%
- Metabolic turnover (human hepatocytes [2]; in the presence of hepatocytes): high metabolic turnover
- Time to complete disappearance (human hepatocytes [2]; in the presence of hepatocytes): ≤ 24 h
- Disappearance with stromal cell controls (human hepatocytes [2]): no disappearance

Structure (SMILES): CC(=O)CC(c1ccccc1)c1c(O)c2ccccc2oc1=O (centres unmarked) [Warfarin, reference compound]
- Mean % Recovery (human plasma protein): 78.1%
- Mean fu (human plasma protein): 0.0377
- Unbound fraction (fu), Replicate 1 (human plasma protein): 0.0418
- Unbound fraction (fu), Replicate 2 (human plasma protein): 0.0356
- Unbound fraction (fu), Replicate 3 (human plasma protein): 0.0358

Structure (SMILES): CN(C)CCc1c[nH]c2ccc(O)cc12 [bufotenine]
- Relative Proportion of compounds identified (human hepatocytes [1]): 5%
- Detection in breastmilk ([3]; any time point): not detected; also recorded: absence
- Detection in serum ([3]; any time point): not detected
- Breastmilk concentration [3, 5]: BLQ
- Breastmilk concentration [3, 6]: BLQ
- Breastmilk concentration [3, 7]: BLQ
- Breastmilk concentration ([3]; 24.0 hrs after last dose, second PPD patient, inhaled 5-MeO-DMT, LC-MS/MS): BLQ
- Breastmilk concentration [3, 8]: BLQ
- Breastmilk concentration [3, 9]: BLQ
- Serum concentration [3, 10]: BLQ
- Serum concentration ([3]; serum, 2.5 hrs after last dose, second PPD patient, inhaled 5-MeO-DMT, LC-MS/MS): BLQ
- Serum concentration ([3]; serum, 24.0 hrs after last dose, second PPD patient, inhaled 5-MeO-DMT, LC-MS/MS): BLQ
- Serum concentration ([3]; serum, 120.0 hrs after last dose, second PPD patient, inhaled 5-MeO-DMT, LC-MS/MS): BLQ
- Serum concentration ([3]; serum, timepoint −24.0 hrs (pre-dosing), second PPD patient, inhaled 5-MeO-DMT 6 mg then 12 mg, LC-MS/MS): BLQ
- Urine concentration [3, 11]: 32.3 pg/mL
- Urine concentration ([3]; urine, 8.5 hrs after last dose, second PPD patient, inhaled 5-MeO-DMT, LC-MS/MS): BLQ
- Urine concentration ([3]; urine, 24.0 hrs after last dose, second PPD patient, inhaled 5-MeO-DMT, LC-MS/MS): BLQ
- Urine concentration ([3]; urine, 120.0 hrs after last dose, second PPD patient, inhaled 5-MeO-DMT, LC-MS/MS): BLQ
- Urine concentration ([3]; urine, timepoint −24.0 hrs (pre-dosing), second PPD patient, inhaled 5-MeO-DMT 6 mg then 12 mg, LC-MS/MS): BLQ
